Assay: 48 hr solubility of benzotriazole UV absorbers in solubilizing monomers
Details: not given
Procedure: The solubility of the benzotriazole 2-(2-hydroxy-3-alpha-cumyl-5-t-octylphenyl)-5-trifluoromethylbenzotriazole (CGL-139, experimentally available from Ciba Specialty Chemicals) in various solubilizing monomers was determined. Mixtures were made up using 5% increments of the benzotriazole. The benzotriazole and solubilizing monomer to be tested were mixed with gentle heating to 70° C. in a water bath until dissolved, then allowed to stand for 48 hours at room temperature. After 48 hours, each mixture was inspected for benzotriazole precipitation. Solubility was determined to within 5% by recording the highest concentration tested for which there was no precipitation and the lowest concentration for which precipitation occurred. […] Where reported in the literature, the Tg of a polymer made entirely of the tested solubilizing monomer is also given.
Using the method of Example 1, the solubility of a variety of benzotriazoles in isobornyl acrylate was determined. The formula for each of the tested benzotriazoles is set out above. These benzotriazoles can also be represented using the general structure 2-(2-hydroxy-3-R2-5-R3-phenyl)-5-R1-benzotriazole. For CGL-139, R1=trifluoromethyl, R2=alpha-cumyl, and R3=t-octyl. For TINUVIN 928, R1=H, R2=alpha-cumyl, and R3=t-octyl. For Tinuvin 328, R1=H, R2=t-amyl, and R3=t-amyl. For TINUVIN 327, R1=chloro, R2=t-butyl, and R3=t-butyl. For TINUVIN 326, R1=chloro, R2=t-butyl, and R3=methyl. For both TINUVIN 234 and TINUVIN 900, R1=H, R2=alpha-cumyl, and R3=alpha-cumyl.

SMILES	Benzotriazole 48 hr Solubility, wt. %
Cc1cc(-n2nc3ccc(Cl)cc3n2)c(O)c(C(C)(C)C)c1 [TINUVIN 326, 5-chloro-2-(2-hydroxy-3-tert-butyl-5-methylphenyl)-2H-benzotriazole]	5-10% wt. %
CC(C)(C)CC(C)(C)c1cc(-n2nc3ccc(C(F)(F)F)cc3n2)c(O)c(C(C)(C)c2ccccc2)c1 [CGL-139, 2-(2-hydroxy-3-alpha-cumyl-5-t-octylphenyl)-5-trifluoromethylbenzotriazole]	25-30% wt. %
CC(C)(C)CC(C)(C)c1cc(-n2nc3ccccc3n2)c(O)c(C(C)(C)c2ccccc2)c1 [TINUVIN 928, 2-(2-hydroxy-3-alpha-cumyl-5-tert-octylphenyl)-2H-benzotriazole]	30-35% wt. %

Same assay, conditions: in isobornyl acrylate; method of Example 1, 48 hours at room temperature

SMILES	Benzotriazole 48 hr Solubility, wt. %
CCC(C)(C)c1cc(-n2nc3ccccc3n2)c(O)c(C(C)(C)CC)c1 [TINUVIN 328, 2-(2-hydroxy-3,5-di-tert-amylphenyl)-2H-benzotriazole]	20-25% wt. %
CC(C)(C)c1cc(-n2nc3ccc(Cl)cc3n2)c(O)c(C(C)(C)C)c1 [TINUVIN 327, 5-chloro-2-(2-hydroxy-3,5-di-tert-butylphenyl)-2H-benzotriazole]	5-10% wt. %
CC(C)(c1ccccc1)c1cc(-n2nc3ccccc3n2)c(O)c(C(C)(C)c2ccccc2)c1 [TINUVIN 900, 2-(2-hydroxy-3,5-di-alpha-cumylphenyl)-2H-benzotriazole]	0-5% wt. %

Reference: patent US7507776B2, “Outdoor weatherable photopolymerizable coatings” (3M Innovative Properties Company, priority 2003, dated 2009)
